# Reference: patent US7737155B2, “Nitrogen-containing heterocyclic compounds and methods of use thereof” (Schering Corporation, priority 2005, dated 2010)
# Biological target: recombinant human nicotinic acid receptor (NAR) (Homo sapiens, UniProt Q8TDS4)
# Assay: Nicotinic Acid Receptor Assay: inhibition of forskolin-stimulated cAMP accumulation in CHO cells (MesoScale Discovery cAMP kit)
# Type: cell-based
# Conditions: CHO cells expressing recombinant human NAR; forskolin-stimulated cAMP; read-out: NA EC50 camp
# Method in brief: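 Compounds were diluted in PBS containing 6 μM forskolin and incubated with cells for 30 min at room temperature. cAMP was quantified by the MesoScale kit against an on-plate standard curve.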
# Sequence of recombinant human nicotinic acid receptor (NAR) (Q8TDS4 whole entry): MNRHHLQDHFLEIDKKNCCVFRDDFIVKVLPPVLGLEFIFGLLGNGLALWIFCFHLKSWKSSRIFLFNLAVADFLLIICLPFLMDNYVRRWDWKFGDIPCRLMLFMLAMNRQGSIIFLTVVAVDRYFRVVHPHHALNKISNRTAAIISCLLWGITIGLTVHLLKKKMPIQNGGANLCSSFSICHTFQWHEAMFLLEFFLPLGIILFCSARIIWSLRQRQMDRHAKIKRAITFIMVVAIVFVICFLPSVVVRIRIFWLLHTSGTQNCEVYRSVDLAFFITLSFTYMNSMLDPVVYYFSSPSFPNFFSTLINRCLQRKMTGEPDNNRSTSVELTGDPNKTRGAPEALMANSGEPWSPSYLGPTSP
row,Structure (SMILES),EC50
1,CCc1cc(=O)oc2nc(OCc3nn(-c4ccccc4)nc3C)[nH]c(=O)c12 [Compound 535],100 to 1000 nM
2,CCc1cc(=O)oc2nc(OCc3ccc(C)c(C(F)(F)F)c3)[nH]c(=O)c12 [Compound 516],> 1000 nM
3,CCc1cc(=O)oc2nc(OCc3cc(F)cc(F)c3)[nH]c(=O)c12 [Compound 506],> 1000 nM
4,CC/C=C\CCc1cc(=O)oc2[nH]c(=O)n(CC3CC3)c(=O)c12 [Compound 254],> 1000 nM
5,CCc1cc(=O)oc2nc(OCc3ccc(C)cc3C)[nH]c(=O)c12 [Compound 504],100 to 1000 nM
6,Cn1c(=O)[nH]c2oc(=O)cc(CCC3CC3)c2c1=O [Compound 276],100 to 1000 nM
7,CC1CCC(Cc2cc(=O)oc3[nH]c(=O)n(C4CCC4)c(=O)c23)CC1 (stereo not drawn) [Compound 246],> 1000 nM
8,O=c1cc(CCCC2CC2)c2c(=O)n(C3CCC3)c(=O)[nH]c2o1 [Compound 224],0.001 to 100 nM
9,CC1CC1CCc1cc(=O)oc2[nH]c(=O)[nH]c(=O)c12 (stereo not drawn) [Compound 295],100 to 1000 nM
10,CCc1cc(=O)oc2nc(OCC#Cc3ccccc3)[nH]c(=O)c12 [Compound 522],100 to 1000 nM
11,CCCCc1cc(=O)oc2c1c(=O)[nH]c(=O)n2CC1CC1 [Compound 257],> 1000 nM
12,CCc1cc(=O)oc2nc(OCc3cc(C)nn3C)[nH]c(=O)c12 [Compound 529],100 to 1000 nM
13,CCc1cc(=O)oc2nc(OCCN3CCCC3)[nH]c(=O)c12 [Compound 579],> 1000 nM
14,O=c1[nH]c(=O)c2c(CCCC3CCC3)cc(=O)oc2[nH]1 [Compound 286],0.001 to 100 nM
15,O=c1[nH]c(=O)c2c3c(c(=O)oc2[nH]1)CCCCCC3 [Compound 211],> 1000 nM
16,O=c1[nH]c(=O)c2c(CC3CC3)cc(=O)oc2[nH]1 [Compound 206],100 to 1000 nM
17,CCc1cc(=O)oc2nc(OCc3ccc(C(F)(F)F)cc3C(F)(F)F)[nH]c(=O)c12 [Compound 514],> 1000 nM
18,O=c1[nH]c(=O)c2c(C3CC3)cc(=O)oc2[nH]1 [Compound 283],100 to 1000 nM
19,CCc1cc(=O)oc2nc(OCc3ccc(-c4cccc(C(F)(F)F)c4)cc3F)[nH]c(=O)c12 [Compound 573],100 to 1000 nM
20,CCc1cc(=O)oc2nc(OCc3cccc(-c4ccccc4)n3)[nH]c(=O)c12 [Compound 520],> 1000 nM
21,O=c1[nH]c(=O)c2c(CCCOC3CCC3)cc(=O)oc2[nH]1 [Compound 290],100 to 1000 nM
22,CCc1cc(=O)oc2nc(OCc3csc(-c4cccs4)n3)[nH]c(=O)c12 [Compound 541],100 to 1000 nM
23,CCOCCCc1cc(=O)oc2[nH]c(=O)[nH]c(=O)c12 [Compound 239],0.001 to 100 nM
24,CCc1cc(=O)oc2nc(OCc3ccccc3-c3cccc(Cl)c3)[nH]c(=O)c12 [Compound 554],> 1000 nM
25,CC(C)CCc1cc(=O)oc2c1c(=O)[nH]c(=O)n2CC1CC1 [Compound 259],> 1000 nM

# Next, values leading:
row,EC50,Structure (SMILES)
1,> 1000 nM,O=c1[nH]c(=O)c2c(CCC3CCC3)c(-c3ccc(C(F)(F)F)cc3)c(=O)oc2[nH]1 [Compound 701]
2,> 1000 nM,CCc1cc(=O)oc2nc(OCC3CCCCN3C)[nH]c(=O)c12 (stereo not drawn) [Compound 594]
3,> 1000 nM,CCc1cc(=O)oc2nc(OCCOc3ccc(Br)cc3)[nH]c(=O)c12 [Compound 600]
4,100 to 1000 nM,CCc1cc(=O)oc2nc(OCC(=O)N(CC)CC)[nH]c(=O)c12 [Compound 621]
5,100 to 1000 nM,CCc1cc(=O)oc2nc(OCc3cccc(N(C)C)c3)[nH]c(=O)c12 [Compound 619]
6,100 to 1000 nM,COCC#CCOc1nc2oc(=O)cc(Cc3ccc(F)cc3)c2c(=O)[nH]1 [Compound 661]
7,100 to 1000 nM,CCc1cc(=O)oc2nc(OCCOC(C)C)[nH]c(=O)c12 [Compound 595]
8,> 1000 nM,CCCCc1c(-c2ccc(NC(C)=O)cc2)c(=O)oc2[nH]c(=O)[nH]c(=O)c12 [Compound 710]
9,> 1000 nM,CCCCc1c(-c2ccc(C#N)cc2)c(=O)oc2[nH]c(=O)[nH]c(=O)c12 [Compound 709]
10,100 to 1000 nM,CCc1cc(=O)oc2nc(OCc3ccccc3-c3cccc(CO)c3)[nH]c(=O)c12 [Compound 634]
11,100 to 1000 nM,CCc1cc(=O)oc2nc(OCc3cc(-c4ccccc4Cl)no3)[nH]c(=O)c12 [Compound 640]
12,100 to 1000 nM,CCOc1nc2oc(=O)cc(CCC3CCCC3)c2c(=O)[nH]1 [Compound 687]
13,100 to 1000 nM,CCc1cc(=O)oc2nc(OCC3=Cc4ccccc4S3(=O)=O)[nH]c(=O)c12 [Compound 604]
14,100 to 1000 nM,CCc1cc(=O)oc2nc(OCCO)[nH]c(=O)c12 [Compound 643]
15,100 to 1000 nM,CCc1cc(=O)oc2nc(OCCCS(C)(=O)=O)[nH]c(=O)c12 [Compound 650]
16,100 to 1000 nM,CCc1cc(=O)oc2nc(OCc3cc(C)nn3C(C)(C)C)[nH]c(=O)c12 [Compound 673]
17,100 to 1000 nM,CCc1cc(=O)oc2nc(OCc3cc(C)nn3CC)[nH]c(=O)c12 [Compound 678]
18,0.001 to 100 nM,COCC#CCOc1nc2oc(=O)cc(Cc3cccc(F)c3)c2c(=O)[nH]1 [Compound 684]
19,100 to 1000 nM,CCc1cc(=O)oc2nc(OCC[Si](C)(C)C)[nH]c(=O)c12 [Compound 637]
20,> 1000 nM,CCCCc1c(-c2ccc(Cl)cc2)c(=O)oc2[nH]c(=O)[nH]c(=O)c12 [Compound 705]
21,0.001 to 100 nM,CCc1cc(=O)oc2nc(OCC#Cc3cccc(Cl)c3)[nH]c(=O)c12 [Compound 626]
22,100 to 1000 nM,CCc1cc(=O)oc2nc(OCc3ccncc3F)[nH]c(=O)c12 [Compound 625]
23,100 to 1000 nM,CCc1cc(=O)oc2nc(OCCCSC)[nH]c(=O)c12 [Compound 642]
24,100 to 1000 nM,CCc1cc(=O)oc2nc(OCc3ccc(-n4cccn4)cc3)[nH]c(=O)c12 [Compound 624]
25,100 to 1000 nM,CCc1cc(=O)oc2nc(OCC(N)=O)[nH]c(=O)c12 [Compound 582]
26,0.001 to 100 nM,CCc1cc(=O)oc2nc(OCCOCc3csc4ccccc34)[nH]c(=O)c12 [Compound 662]

# Same assay, conditions: NA EC50 camp (nM), CHO cells expressing recombinant human NAR; forskolin-stimulated cAMP
row,Structure (SMILES),EC50
1,CCC#CCOc1nc2oc(=O)cc(CC)c2c(=O)[nH]1 [Compound 512],0.001 to 100 nM
2,CCc1cc(=O)oc2nc(OCc3ccccc3-c3cccc(C#N)c3)[nH]c(=O)c12 [Compound 509],100 to 1000 nM
3,CCc1cc(=O)oc2nc(OCc3cccc(-c4cccc(C#N)c4)c3)[nH]c(=O)c12 [Compound 567],100 to 1000 nM

# Same assay, conditions: NA EC50 camp, inhibition of forskolin-stimulated cAMP accumulation, CHO cells expressing recombinant human NAR
row,Structure (SMILES),EC50
1,CC1(CCCc2cc(=O)oc3nc(C(F)F)[nH]c(=O)c23)CC1 [Compound 811],22 nM
2,CCc1cc(=O)oc2nc[nH]c(=O)c12 [Compound 807],> 10000 nM

# Same assay, conditions: inhibition of forskolin-stimulated cAMP accumulation, CHO cells expressing recombinant human NAR; read-out: NA EC50 camp
row,Structure (SMILES),EC50
1,CCc1cc(=O)oc2nc(OC(C)c3ccccc3F)[nH]c(=O)c12 (stereo not drawn) [Compound 90],475 nM
2,O=c1[nH]c(=O)c2c(CCC3CCCCC3)cc(=O)oc2[nH]1 [Compound 124],78.5 nM
3,O=c1[nH]c(=O)c2c(CC3CCCC3)cc(=O)oc2[nH]1 [Compound 104],47 nM

# Further lines, results first:
row,EC50,Structure (SMILES)
1,228 nM,O=c1cc(CCC2CC2)c2c(=O)[nH]c(CF)nc2o1 [Compound 753]
2,49.9 nM,CCc1cc(=O)oc2nc(OCC#CC(C)O)[nH]c(=O)c12 (stereo not drawn) [Compound 729]
3,5330 nM,CCOc1nc(=O)[nH]c2oc(=O)cc(CCC3CCC3)c12 [Compound 786]
4,161 nM,O=c1cc(CCCC2CC2)c2c(=O)n(C(F)F)c(=O)[nH]c2o1 [Compound 814]
5,256 nM,CCCCc1cc(=O)oc2[nH]c(=O)n(O)c(=O)c12 [Compound 806]
6,> 10000 nM,CCc1cc(=O)n(C)c2[nH]c(=O)[nH]c(=O)c12 [Compound 808]
7,112 nM,O=c1nc(OCC(F)F)c2c(CCC3CCC3)cc(=O)oc2[nH]1 [Compound 830]
8,128 nM,CCCCCc1cc(=O)oc2nc(CF)[nH]c(=O)c12 [Compound 744]
9,91 nM,O=c1nc(OCCF)c2c(CCCC3CC3)cc(=O)oc2[nH]1 [Compound 824]
10,1450 nM,CCCc1cc(=O)oc2[nH]c(=O)n(CF)c(=O)c12 [Compound 817]
11,40 nM,CCC(C)CCc1cc(=O)oc2nc(C(F)F)[nH]c(=O)c12 (stereo not drawn) [Compound 812]
12,882 nM,CCCCc1cc(=O)oc2[nH]c(=O)nc(OCC(F)(F)F)c12 [Compound 829]
13,19 nM,COn1c(=O)[nH]c2oc(=O)cc(CCC3CCC3)c2c1=O [Compound 769]
